This assay addresses T1, TNFα-induced NF-κB signal transduction pathway (TNFR1 signaling) in THP-1 cells (Homo sapiens, UniProt P19438).
T1 sequence (P19438 30-455): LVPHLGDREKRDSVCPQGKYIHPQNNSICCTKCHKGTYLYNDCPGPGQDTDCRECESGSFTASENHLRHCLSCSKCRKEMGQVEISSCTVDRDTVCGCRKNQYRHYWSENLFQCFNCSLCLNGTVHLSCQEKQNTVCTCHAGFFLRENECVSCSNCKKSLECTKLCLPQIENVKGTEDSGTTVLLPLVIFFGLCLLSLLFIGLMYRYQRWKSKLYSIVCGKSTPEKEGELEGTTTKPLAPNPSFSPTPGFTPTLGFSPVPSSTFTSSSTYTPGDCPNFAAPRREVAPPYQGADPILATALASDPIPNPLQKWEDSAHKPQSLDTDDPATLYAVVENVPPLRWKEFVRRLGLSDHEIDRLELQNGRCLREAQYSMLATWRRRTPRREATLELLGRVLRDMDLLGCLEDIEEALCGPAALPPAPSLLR
Description: THP-1 Lucia NF-κB reporter cell assay, inhibition of TNFα-induced NF-κB signaling. The class given is cell-based. The note with it: THP-1 NF-κB Lucia reporter cells, 10 ng/mL TNFα, 16-18 h, secreted luciferase; read-out: THP-1 IC50. The method in brief:
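THP-1 Lucia NF-κB cells, 20k/well, no selection antibiotics; peptide pre-inc 1 h 37 °C; + recombinant human TNFα 10 ng/mL final; o.n.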

Bridge positions count the residues as written; N and C are the ends. Square brackets hold non-standard residues; d marks the D form. Peptide text beside a SMILES is read from it. Trp(βS-Me) = C[C@@H](c1c[nH]c2ccccc12)[C@H](N)C(=O)O; Trp(7-Cl) = N[C@@H](Cc1c[nH]c2c(Cl)cccc12)C(=O)O; Phe(4-COOH) = N[C@@H](Cc1ccc(C(=O)O)cc1)C(=O)O; Phe(4-CH2NH2) = NCc1ccc(C[C@H](N)C(=O)O)cc1; Cit = NC(=O)NCCC[C@H](N)C(=O)O; αMeS = C[C@](N)(CO)C(=O)O; Sar = CNCC(=O)O

As usually defined, the IC50 is the midpoint of a concentration-inhibition curve.

For the compound `C[C@@H](c1c[nH]c2ccccc12)[C@@H]1NC(=O)CN(C)C(=O)[C@H](Cc2c[nH]cn2)NC(=O)[C@H](Cc2ccc(C(=O)O)cc2)NC(=O)[C@](C)(CO)NC(=O)[C@H](Cc2c[nH]c3c(Cl)cccc23)NC(=O)[C@H](Cc2ccc(C(=O)O)cc2)NC(=O)[C@H](CC(N)=O)NC(=O)[C@H]2CCCN2C(=O)[C@H]([C@@H](C)c2c[nH]c3ccccc23)NC(=O)[C@H](CO)NC(=O)[C@H](Cc2ccc(CN)cc2)NC(=O)[C@H](CCCNC(N)=O)NC(=O)CSC[C@@H](C(N)=O)NC1=O` [SEQ ID NO. 215] ({CH2CO}-[Cit][Phe(4-CH2NH2)]S[Trp(βS-Me)][dP]N[Phe(4-COOH)][Trp(7-Cl)][αMeS][Phe(4-COOH)]H[Sar][Trp(βS-Me)]C-NH2; thioether N-14), the IC50 was 9.7 nM.

Values taken from patent US20240287138A1, “CYCLIC PEPTIDES FOR INHIBITING TNF RECEPTOR 1 ACTIVITY” (Merck Sharp & Dohme LLC, priority 2023, published 2024).
